Results: patent US20100152137A1, “Alkylphospholipids as active agents for prevention of plant pathogens” (KTB-Tumorforschungs GMBH, priority 2006, published 2010)
“And” between values parts separate entries of the source, which are not always exact repeats. Equal entries are not always repeated.

What was measured:
[1] = tested on: single cell culture of Vitis vinifera cv. Pinot noir; test: pH change (alcalinization) in the medium of a single cell culture of grapevine; type: cell-based
From the text: A response of plant cells to substances that can induce resistance in plants is to open ion channels in the cell membrane. Thereupon, protons flow into the interior of the cell, which causes alcalinization of the medium surrounding the cell. This temporary alcalinization has been measured.
Greenhouse plants of the variety Pinot noir (Vitis vinifera cv. Pinot noir) served as the starting material. A callus culture was started first from young shoots. Thus, the plant parts were cut into pieces about 1-2 cm in size, washed in 70% (v/v) ethanol and sterilized in 3.5% (w/v) NaOCl solution for about 2 min. The sterilized tissue pieces were transferred to solid MS nutrient medium (Murashige, T. and Skoog, F., Physiol. Plant, 18: 100-127 (1962)) and slightly pushed into the agar, so that the cuts came into contact with the medium. The formation of callus tissue occurred at 23° C. in a phytochamber (16 h of white light 300 μmol m^−2 s^−1; 8 h of dark; >95% relative humidity). At the cuts, calluses formed, which were repeatedly transferred to a new medium in a sterile manner after 4-6 weeks.
Starting from strongly growing callus cultures, single cell cultures were started. Thus, cells were passaged under sterile conditions from callus tissue to liquid MS nutrient medium. The cell cultures were grown in a temperature constant room at 23° C. on a rotary shaker (120 rpm). In regular passage cycles of 4 days, the cell cultures were admixed with 40 ml of new liquid MS nutrient medium and distributed in two equal parts of about 40 ml to two 250 ml Erlenmeyer flasks.
For measuring the pH of the medium, 10 ml of a 2 days old cell culture was added to a small rolled rim vial. The rolled rim vial was placed onto a shaker, and a pH electrode was immersed into the cell culture. The electrode was fixed to be constantly washed round by the cell culture. The revolutions per minute of the shaker was 140 rpm. After the measured pH had stabilized, the substance to be tested was added, and the change of pH was continuously recorded with a plotter.

Plasmopara viticola [2] = test: Grapevine leaf disk test against downy mildew; type: in vivo, Plasmopara viticola on Vitis vinifera cv. Müller-Thurgau; conditions: for Average infestation intensity: five-point scale 1-5, per experiment; for No. of leaf disks at scale point 1 (no sporulation) / No. of leaf disks at scale point 2 / No. of leaf disks at scale point 3 / No. of leaf disks at scale point 4 / No. of leaf disks at scale point 5 (sporulation all over the surface): six days after infection
Protocol: Greenhouse plants of the variety Müller-Thurgau (Vitis vinifera cv. Müller-Thurgau) served as the starting material. Young leaves were sterilized on the surface with 70% (v/v) ethanol. Subsequently, leaf disks of 16 mm in diameter were punched out and placed upside down onto water agar (0.8%) in transparent boxes. One drop (about 60 μl) of an aqueous test solution (concentrations employed, see FIG. 1) was applied 24 h before the infection with the pathogen causing downy mildew (Plasmopara viticola), and the leaf disks were incubated at 25° C. (16 h of white light 300 μmol m^−2 s^−1; 8 h of dark) and >95% relative humidity. After 24 h, the drop was removed and replaced by a drop containing spores of the pathogen (about 50 μl of an aqueous suspension containing 2×10^5 sporangia/mil). The infestation intensity was determined six days after the infection.
The infestation intensity was determined by means of a five-point scale ranging from 1 (no sporulation) to 5 (sporulation all over the surface). For each substance and concentration, 10 leaf disks per experiment were evaluated, and the mean value from at least three independent parallel experiments was determined. Distilled water and phosphite as negative and positive controls, respectively.

Plasmopara viticola [3] = test: Downy mildew control on intact greenhouse plants; type: in vivo, Plasmopara viticola on Vitis vinifera cv. Müller-Thurgau; conditions: for II (%) per REP / II (%) per variant: infestation intensity; for RW II IF (%): relation value for infestation frequency vs control; for RW II II (%): relation value for infestation intensity vs control
Protocol: Greenhouse plants of the variety Müller-Thurgau (Vitis vinifera cv. Müller-Thurgau) served as the starting material. At least three plants each in the ten leaf stage were employed per test solution. HePC was applied (sprayed with the application device System Schachtner) in concentrations of 0.01%, 0.05% and 0.1%. In an additional experiment with 0.01% HePC, the same concentration of HePC (0.01%) was additionally applied one week before (2×HePC). After 24 h from the application of the test solutions, the plants were infected with the pathogen causing downy mildew (Plasmopara viticola). Six days after the infection, the sporulation of Plasmopara viticola was induced, and then the infestation intensity was established.
Thus, the percent proportion of the sporulating surface area relative to the entire surface area of each leaf was visually observed. For each substance and concentration, the leaves of at least three plants were evaluated, and the mean value determined. The application of distilled water served as a negative control. The experiment was repeated twice.

Plasmopara viticola [4] = test: Downy mildew control on Gutedel seedlings; type: in vivo, Plasmopara viticola on Gutedel seedlings; conditions: for Infestation incidence (%) / Infestation intensity (%): evaluated after 10 days
Protocol: The examinations were performed with seedlings of the variant “Gutedel”, the seedlings having 3-4 leaves and a height of 8-12 cm at the time of application. HePC (0.01 and 0.001%) was applied with a rotary plate automated spraying device (about 1.2 bar spraying pressure) for 20 seconds. For each concentration, 6 plants were treated, which also applied to the positive control (infection, no treatment) and negative control (no infection, no treatment).
After the leaves had dried, the plants were infected/sprayed with Plasmopara viticola (spore suspension (100,000 spores/ml)) and further kept at 21° C. and 100% RH in a cycle of 16 h of day and 8 h of night.
The proportion of leaves infested (incidence) and the intensity of infestation, i.e., the infested proportion of the leaf areas, were evaluated.

[5] = tested on: pathogen causing downy mildew of grapevine; test: Outdoor test in the vineyard under practical conditions; type: in vivo, Müller-Thurgau grapevine; conditions: HePC 0.2%, no artificial infection, status Jun. 19, 2007
From the text: Currently (vegetation period of 2007), HePC (0.2%) is being tested in an outdoor test. In these experiments, the plants in a commercial vineyard (Müller-Thurgau, age about 15 years) are not artificially infected. For this experiment, 3×6 plants (different locations in the vineyard) were employed. In addition, a corresponding untreated control is observed. […] Thus, to date, it has not been possible to observe infestation of the plants treated with HePC, despite of the currently sticky and humid weather (optimum infection conditions) and the very early start of the vegetation period in this year. In contrast, infestation of the control has already been observed.

[6] = HePC 0.05%, infestation frequency

Structure (SMILES): CCCCCCCCCCCCCCCCOP(=O)([O-])OCC[N+](C)(C)C [HePC, hexadecylphosphocholine]
- Δ (pH) ([1]; HePC final concentration 0.00025%): 0.03
- Δ (pH) ([1]; HePC final concentration 0.00050%): 0.16
- Δ (pH) ([1]; HePC final concentration 0.00075%): 0.25
- Δ (pH) ([1]; HePC final concentration 0.00100% (w/v)): 0.41
- Average infestation intensity (Plasmopara viticola [2]; HePC 0.0001%): 5.0 and 2.9
- No. of leaf disks at scale point 1 (no sporulation) (Plasmopara viticola [2]; HePC 0.0001%): 0
- Average infestation intensity (Plasmopara viticola [2]; HePC 0.01%): 1.0
- No. of leaf disks at scale point 1 (no sporulation) (Plasmopara viticola [2]; HePC 0.01%): 9
- No. of leaf disks at scale point 2 (Plasmopara viticola [2]; HePC 0.01%): 0
- No. of leaf disks at scale point 3 (Plasmopara viticola [2]; HePC 0.01%): 0
- No. of leaf disks at scale point 4 (Plasmopara viticola [2]; HePC 0.01%): 0
- No. of leaf disks at scale point 5 (sporulation all over the surface) (Plasmopara viticola [2]; HePC 0.01%): 0
- Average infestation intensity (Plasmopara viticola [2]; HePC 0.1%): 1.0
- No. of leaf disks at scale point 1 (no sporulation) (Plasmopara viticola [2]; HePC 0.1%): 9
- No. of leaf disks at scale point 2 (Plasmopara viticola [2]; HePC 0.1%): 0
- No. of leaf disks at scale point 3 (Plasmopara viticola [2]; HePC 0.1%): 0
- No. of leaf disks at scale point 4 (Plasmopara viticola [2]; HePC 0.1%): 0
- No. of leaf disks at scale point 5 (sporulation all over the surface) (Plasmopara viticola [2]; HePC 0.1%): 0
- IF (%) per variant (Plasmopara viticola [3]; HePC 0.01% applied once, infestation frequency): 53.4%
- II (%) per REP (Plasmopara viticola [3]; HePC 0.01% applied once): 1.67% and 2.89% and 4.00%
- II (%) per variant (Plasmopara viticola [3]; HePC 0.01% applied once): 2.85%
- RW II IF (%) (Plasmopara viticola [3]; HePC 0.01% applied once): 23.6% and 23.56%
- RW II II (%) (Plasmopara viticola [3]; HePC 0.01% applied once): 73.2% and 73.16%
- II (%) per REP (Plasmopara viticola [3]; HePC 0.01%, 2 x (also applied one week before)): 0.20% and 0.80% and 0.11%
- IF (%) per variant (Plasmopara viticola [3]; HePC 0.01%, 2 x, infestation frequency): 23.7%
- II (%) per variant (Plasmopara viticola [3]; HePC 0.01%, 2 x): 0.37%
- RW II IF (%) (Plasmopara viticola [3]; HePC 0.01%, 2 x): 66.1% and 66.09%
- RW II II (%) (Plasmopara viticola [3]; HePC 0.01%, 2 x): 96.5% and 96.51%
- IF (%) per REP (Plasmopara viticola [3]; [6]): 33.3% and 44.4%
- IF (%) per variant (Plasmopara viticola [3]; [6]): 37.0%
- II (%) per REP (Plasmopara viticola [3]; HePC 0.05%): 2.22% and 1.33% and 0.33%
- II (%) per variant (Plasmopara viticola [3]; HePC 0.05%): 1.30%
- RW II IF (%) (Plasmopara viticola [3]; HePC 0.05%): 47.0% and 47.02%
- RW II II (%) (Plasmopara viticola [3]; HePC 0.05%): 87.8%
- IF (%) per variant (Plasmopara viticola [3]; HePC 0.1%, infestation frequency): 25.0%
- II (%) per REP (Plasmopara viticola [3]; HePC 0.1%): 0.11% and 0.33% and 0.89%
- II (%) per variant (Plasmopara viticola [3]; HePC 0.1%): 0.36%
- RW II IF (%) (Plasmopara viticola [3]; HePC 0.1%): 64.2% and 64.24%
- RW II II (%) (Plasmopara viticola [3]; HePC 0.1%): 96.6%
- infestation increased by a factor (Plasmopara viticola [4]; 0.001% HePC compared with 0.01% HePC): 10
- Infestation incidence (%) (Plasmopara viticola [4]; HePC 0.001%): 43%
- Infestation intensity (%) (Plasmopara viticola [4]; HePC 0.001%): 33.9%
- leaves infested as compared to the positive control (Plasmopara viticola [4]; HePC 0.01%): 25%
- Infestation incidence (%) (Plasmopara viticola [4]; HePC 0.01%): 13%
- Infestation intensity (%) (Plasmopara viticola [4]; HePC 0.01%): 3.6%
- prevention of pathogen infestation [5]: good effect
